According to US20160067211A1, “PHARMACEUTICAL COMPOSITION” (Eberhard Karls Universitaet Tuebingen Medizinische Fakultaet, priority 2013, published 2016):

Legend:
BLM melanoma cells [1] = assay: FACS cell cycle analysis (PI), BLM; format: cell-based, human; details: 100 μM, 48 hours
Procedure: (A) Cell cycle FACS analyses of PI stained BLM and SK-MEL-28 melanoma cells. 100 μM of 8-PN-induced a G2 arrest in both cells. (B) FACS analyses of BLM and SK-MEL-28 melanoma cells treated with 100 μM 6-PN or 8-PN and stained for annexin V/PI; staurosporin was used as control for apoptosis induction and DMSO as vehicle control. […] (C) BLM and SK-MEL-28 melanoma cells were treated with 100 μM of PNs; TSA, SAHA and EMSO were used as controls.
To further analyze the possibility of apoptosis induction, an extensive apoptosis assay was performed on SK-MEL-28 melanoma cells 4 hours after treatment with 100 μM 6-PN or 8-PN (FIG. 9). […] This was verified by FACS cell cycle analyses to screen for a possible increase of the sub-G1 fraction of cells (apoptotic cells) or for the induction of a G2 arrest (inhibition of proliferation). […] To further differentiate between the induction of apoptosis and/or necrosis an PI/Annexin V staining of SK-MEL-28 and BLM cells was performed 4 hours and 24 hours after the treatment with 6-PN or 8-PN; 10 μM staurosporin (6 hours treatment) was used as positive control for the induction of apoptosis; DMSO treatment was used as vehicle control. The cells were then analyzed by FACS.

BLM melanoma cells [2] = assay: Real time cell monitoring assay (xCELLigence), BLM; format: cell-based, human; details: BLM, 20, 50 and 100 μM, 104 hours, vs. control
Procedure: FIG. 5: real time cell monitoring of BLM and SK-MEL-28 melanoma cells treated with 6-PN and 8-PN. (A) BML and SK-MEL-28 cells were treated 24 hours after seeding with different concentrations of 6-PN and 8-PN (20 μM, 50 μM and 100 μM) over a 104 hour time period. The cellular impedance was measured over the entire observation time using the xCELLigence™ SP system and is depicted by the cell index (CI). All CI-values were normalized shortly before the treatment started. […] As a positive control, Triton X-100 0.1% was used to induce cell death. Shown are the mean±SD of three independent experiments, each performed in triplicates (B, C). […]
The human melanoma cell lines BLM and SK-MEL-28 (2.5×10^3 cells/well) were seeded in 96 well plates. The cells were treated after 24 hours with different concentrations of 6-PN or 8-PN (20 μM, 50 μM and 100 μM) and monitored by measurements of electrical impedance in 15 minutes intervals for an overall time span of in total 104 hours using the xCELLigencer® SP Systems (Roche Applied Science). The cell index values were calculated using the RTCA software (1.0.0.0805). […]
The human metastatic melanoma cell lines BLM and SK-MEL-28 were treated once with rising concentrations of 6-PN or 8-PN (20 μM, 50 μM and 100 μM) and monitored continuously for an overall time span of 104 hours using a real time monitoring assay (FIG. 5A). […]

LOXIMVI melanoma cells = assay: Organotypic human epidermal skin reconstructs, LOXIMVI; format: cell-based; details: same treatment conditions (100 μM), untreated 100% MIB1 positive
Procedure: FIG. 11: 6-PN and 8-PN reduce proliferation and invasion of BLM and LOXIMVI melanoma cells in human epidermal skin reconstructs and induce little embryo toxicity. (A) BLM melanoma cells and keratinocytes were seeded on top of a collagen matrix populated by fibroblasts. After 16 days a keratinizing stratified epithelium with a rudimentary corium is formed. […] (B) Similar results were obtained for LOXIMVI melanoma cells under the same treatment conditions. Only nests of dead, MIB1 negative LOXIMVI cells were detected after treatment with the PNs. […]
In this assay, keratinocytes and melanoma cells are seeded on top of a collagen matrix populated by fibroblasts. […] Untreated control BLM cells (depicting 70-80% proliferation, determined by MIB1 immunhistochemistry) had formed a large tumor in the epidermal part of the reconstruct and had invaded the corium (FIG. 11A, upper panel). To determine the amount of proliferating cells, the number of MIB1 positive melanoma cells per power field in the epidermal part of the reconstruct at the epidermal-dermal border was counted (40× magnification, n=5 adjacent fields examined). Further, the number of melanoma cells invading the dermal part of the reconstruct was counted in the same high power fields. In reconstructs with untreated BLM cells, 103±15 MIB1 positive cells and 39±13 invasive cells were counted (FIG. 11A, upper panel). […]

CC(C)=CCc1c(O)cc(O)c2c1OC(c1ccc(O)cc1)CC2=O (stereo not shown) [8-PN, 5,7-Dihydroxy-2-(4-hydroxy-phenyl)-8-(3-methyl-but-2-enyl)-chroman-4-one]
sub-G1 fraction (apoptotic cells) (BLM melanoma cells [1]): remained unaffected | cells in the G2 phase (BLM melanoma cells [1]; DMSO control 30.4%): 99.6% | normalized cell index (CI) (BLM melanoma cells [2]): descended over time | cell proliferation of LOXIMVI cells (MIB1) (LOXIMVI melanoma cells): completely inhibited
